Patent US9452170B2, “Compounds and methods for inducing chondrogenesis” (The California Institute for Biomedical Research, priority 2013, dated 2016)

system: Human MSCs; assay: Human chondrocyte differentiation assay (immunostaining for type II collagen, Sox9 and COMP); format: cell-based; settings: 168 h, compound 1 μM, 7 days, vs DMSO vehicle, read-out: Biological Activity (increase in staining intensity compared to vehicle control)
Method: Human MSCs (50,000) were plated into each well of a 96-well plate and cultured overnight. Compounds (in DMSO solution) were added to the cells at a final concentration of 1 μM, and the cells were cultured for 7 days at 5% CO2, 37° C. The cells were fixed with 10% formalin solution at room temperature for 10 min, and immunostained using antibodies specific for type II collagen (Abcam), Sox9 (Santa Cruz) and cartilage oligomeric matrix protein (COMP, Santa Cruz), and fluorescently labeled secondary antibodies (Li-Cor). The total intensity of the staining was measured using Oddyssey CLx imaging system (Li-Cor). Vehicle (DMSO) was used as control to determine the basal level of chondrocyte differentiation. […] Representative data are shown in Table 1 [A: >50% increase in staining intensity compared to vehicle control; B: 30-50% increase in staining intensity compared to vehicle control].

| SMILES | activation at 1 µM |
| --- | --- |
| N#Cc1ccc(Cl)c(NC(=O)c2ccccc2C(=O)O)c1 [Compound 1] | 30 to 50% |
| N#Cc1cc(NC(=O)c2ccccc2C(=O)O)ccc1Cl [Compound 2] | 30 to 50% |
| N#Cc1cc(Cl)cc(NC(=O)c2ccccc2C(=O)O)c1 [Compound 3] | > 50% |
| CC(=O)c1ccc(Cl)c(NC(=O)c2ccccc2C(=O)O)c1 [Compound 4] | > 50% |
| CC(=O)c1cc(NC(=O)c2ccccc2C(=O)O)ccc1Cl [Compound 5] | 30 to 50% |
| COc1ccc(C#N)cc1NC(=O)c1ccccc1C(=O)O [Compound 6] | > 50% |
| COc1ccc(NC(=O)c2ccccc2C(=O)O)cc1C#N [Compound 7] | > 50% |
| N#Cc1cc(Cl)ccc1NC(=O)c1ccccc1C(=O)O [Compound 8] | 30 to 50% |
| N#Cc1cc(NC(=O)c2ccccc2C(=O)O)cc(C(F)(F)F)c1 [Compound 9] | > 50% |
| O=C(O)c1ccccc1C(=O)Nc1ccc(C(F)(F)F)c(F)c1 [Compound 10] | 30 to 50% |
| O=C(O)c1ccccc1C(=O)Nc1ccc(Cl)cc1C(F)(F)F [Compound 11] | 30 to 50% |
| O=C(O)c1ccccc1C(=O)Nc1cc(Cl)cc(C(F)(F)F)c1 [Compound 12] | 30 to 50% |
| Cc1ccc(NC(=O)c2ccccc2C(=O)O)c(C#N)c1 [Compound 13] | 30 to 50% |
| CC(=O)c1ccc(OC(F)F)c(NC(=O)c2ccccc2C(=O)O)c1 [Compound 14] | 30 to 50% |
| NS(=O)(=O)c1ccc(N2C(=O)c3ccccc3C2=O)cc1 [Compound 15] | 30 to 50% |
| COc1ccc2c(c1)C(=O)N(c1ccc(C(=O)O)cc1)C2=O [Compound 16] | > 50% |
| O=C(O)c1ccccc1C(=O)Nc1ccccc1OC(F)(F)F [Compound 17] | 30 to 50% |
| O=C(O)c1ccccc1C(=O)Nc1cccc(C(F)(F)F)c1 [Compound 18] | > 50% |
| O=C(O)c1ccccc1C(=O)Nc1cccc(OC(F)(F)F)c1 [Compound 19] | > 50% |
| Cc1ncsc1NC(=O)c1ccccc1C(=O)O [Compound 22] | 30 to 50% |
| CC(C(=O)c1ccc(C#N)cc1)C1OC(=O)c2ccccc21 (centres unmarked) [Compound 23] | > 50% |
| N#Cc1ccc(C(=O)CC2NC(=O)c3ccccc32)cc1 (centres unmarked) [Compound 24] | > 50% |
| N#Cc1ccc(C(=O)CC2OC(=O)c3ccccc32)cc1 (centres unmarked) [Compound 25] | 30 to 50% |

| SMILES | activation at 1 µM |
| --- | --- |
| NS(=O)(=O)c1ccc(N2Cc3ccccc3C2=O)cc1 [Compound 26] | 30 to 50% |
| CNS(=O)(=O)c1ccc(N2CCCC2=O)cc1 [Compound 28] | 30 to 50% |
| O=C(O)c1ccccc1C(=O)Nc1nccs1 [Compound 29] | 30 to 50% |
| CC(=O)c1ccc(F)c(NC(=O)c2ccccc2C(=O)O)c1 [Compound 30] | 30 to 50% |
| CC(=O)c1cc(NC(=O)c2ccccc2C(=O)O)ccc1F [Compound 31] | 30 to 50% |
| CC(C)(CO)c1ccc(NC(=O)c2ccccc2C(=O)O)cc1 [Compound 32] | 30 to 50% |
| Cc1ccc2c(c1)C(=O)N(c1ccc(C(=O)O)cc1)C2=O [Compound 33] | 30 to 50% |
| N#Cc1ccc(F)c(NC(=O)c2ccccc2C(=O)O)c1 [Compound 34] | 30 to 50% |
| N#Cc1cccc(NC(=O)c2ccccc2C(=O)O)c1F [Compound 35] | 30 to 50% |
| N#Cc1cc(NC(=O)c2ccccc2C(=O)O)ccc1F [Compound 36] | 30 to 50% |
| N#Cc1cc(F)cc(NC(=O)c2ccccc2C(=O)O)c1 [Compound 37] | > 50% |
| CS(=O)(=O)c1cccc(NC(=O)c2ccccc2C(=O)O)c1 [Compound 38] | 30 to 50% |
| N#Cc1cccc(C(=O)CC2NC(=O)c3ccccc32)c1 (centres unmarked) [Compound 39] | 30 to 50% |
| N#Cc1ccccc1C(=O)CC1OC(=O)c2ccccc21 (centres unmarked) [Compound 40] | 30 to 50% |
| O=C(CC1OC(=O)c2ccccc21)c1ccccc1Cl (centres unmarked) [Compound 41] | > 50% |
| O=C(CC1NC(=O)c2ccccc21)c1ccc(C(F)(F)F)cc1 (centres unmarked) [Compound 42] | 30 to 50% |
| CS(=O)(=O)c1ccc(C(=O)CC2OC(=O)c3ccccc32)cc1 (centres unmarked) [Compound 44] | 30 to 50% |
| CS(=O)(=O)Nc1ccccc1C(=O)Nc1ccc(CC#N)cc1 [Compound 45] | 30 to 50% |
| CS(=O)(=O)Nc1ccccc1C(=O)Nc1ccc(Br)cc1 [Compound 46] | 30 to 50% |
| O=C(O)Cc1ccccc1C(=O)Nc1ccc(CCO)cc1 [Compound 47] | 30 to 50% |
| COc1cccc(NC(=O)c2ccccc2C(=O)O)c1 [Compound 48] | 30 to 50% |
| COC(=O)N(C)Cc1cccc(NC(=O)c2ccccc2C(=O)O)c1 [Compound 49] | 30 to 50% |
| CC(=O)N(C)Cc1cccc(NC(=O)c2ccccc2C(=O)O)c1 [Compound 50] | 30 to 50% |

| SMILES | activation at 1 µM |
| --- | --- |
| NC(=O)Cc1ccc(NC(=O)c2ccccc2C(=O)O)cc1 [Compound 51] | 30 to 50% |
| CC(O)Cc1ccc(NC(=O)c2ccccc2C(=O)O)cc1 (centres unmarked) [Compound 52] | 30 to 50% |
| O=C(O)c1ccc(S(=O)(=O)Nc2ccccc2C(=O)O)cc1 [Compound 53] | 30 to 50% |
| N#Cc1ccc(C(=O)Nc2cnccc2C(=O)O)cc1 [Compound 54] | 30 to 50% |
| O=C(O)c1ccccc1NC(=O)c1ccccc1C(=O)O [Compound 55] | > 50% |
| CN(C)S(=O)(=O)c1ccccc1NC(=O)c1ccc(C#N)cc1 [Compound 56] | > 50% |
| O=C(O)c1ccccc1C(=O)Nc1ccccc1CCO [Compound 57] | 30 to 50% |
| C/C(=N\O)c1cccc(NC(=O)c2ccccc2C(=O)O)c1 [Compound 58] | 30 to 50% |
| CON=C(C)c1cccc(NC(=O)c2ccccc2C(=O)O)c1 [Compound 59] | 30 to 50% |
| N#Cc1ccc(NC(=O)c2ccccc2-c2ccc(C(=O)O)cc2)cc1 [Compound 60] | > 50% |
| N#Cc1ccc(NC(=O)c2ccccc2-c2ccccc2C(=O)O)cc1 [Compound 61] | > 50% |
| O=C(O)c1ccccc1C(=O)Nc1ccc2c(c1)OCCO2 [Compound 64] | 30 to 50% |
| O=C(O)c1ccccc1C(=O)Nc1ccc2c(c1)OCO2 [Compound 65] | > 50% |
| Cc1cc(NC(=O)c2ccccc2C(=O)O)ccn1 [Compound 66] | 30 to 50% |
| Cc1cnccc1NC(=O)c1ccccc1C(=O)O [Compound 67] | > 50% |
| COc1ccccc1NC(=O)c1ccccc1C(=O)O [Compound 68] | > 50% |
| O=C(O)c1ccccc1C(=O)NCc1cc(C(F)(F)F)cc(C(F)(F)F)c1 [Compound 69] | 30 to 50% |
| N#Cc1ccccc1NC(=O)c1ccccc1C(=O)O [Compound 70] | > 50% |
| NCc1cccc(NC(=O)c2ccccc2C(=O)O)c1 [Compound 71] | > 50% |
| CS(=O)(=O)NCc1cccc(NC(=O)c2ccccc2C(=O)O)c1 [Compound 72] | > 50% |
| O=C(O)c1ccccc1C(=O)Nc1ccc(-c2ncc[nH]2)cc1 [Compound 74] | 30 to 50% |
| CN(C(N)=O)c1ccccc1C(=O)Nc1ccc(C#N)cc1 [Compound 75] | 30 to 50% |
| N#Cc1ccc(NC(=O)c2ccccc2NS(=O)(=O)c2ccccc2)cc1 [Compound 77] | > 50% |

| SMILES | activation at 1 µM |
| --- | --- |
| CN(c1ccccc1C(=O)Nc1ccc(C#N)cc1)S(C)(=O)=O [Compound 78] | 30 to 50% |
| COCCS(=O)(=O)Nc1ccccc1C(=O)Nc1ccc(C#N)cc1 [Compound 79] | 30 to 50% |
| O=C(O)c1ccccc1C(=O)Nc1ccon1 [Compound 80] | 30 to 50% |
| O=C(O)c1ccccc1C(=O)NCCOc1ccccc1 [Compound 81] | 30 to 50% |
| Cc1cc(NC(=O)c2ccccc2C(=O)O)n[nH]1 [Compound 82] | > 50% |
| O=C(O)c1ccccc1C(=O)Nc1ccccc1OCC(F)(F)F [Compound 83] | > 50% |
| CC(CO)c1ccc(NC(=O)c2ccccc2C(=O)O)cc1 (centres unmarked) [Compound 84] | > 50% |
| Cc1ccc(NC(=O)c2ccccc2C(=O)O)c(F)c1 [Compound 85] | 30 to 50% |
| O=C(O)c1ccccc1C(=O)NCc1ccccc1OC(F)F [Compound 86] | 30 to 50% |
| COc1ccc(OC)c(NC(=O)c2ccccc2C(=O)O)c1 [Compound 87] | 30 to 50% |
| O=C(O)c1ccc(CNC(=O)c2cccc(F)c2C(=O)O)cc1 [Compound 93] | 30 to 50% |
| O=C(O)c1ccc(CNC(=O)c2c(F)cccc2C(=O)O)cc1 [Compound 94] | 30 to 50% |
| O=C(O)c1ccc(CNC(=O)c2ccccc2C(=O)O)c(Cl)c1 [Compound 96] | 30 to 50% |
| O=C(O)c1ccc(CNC(=O)c2cccc(Cl)c2C(=O)O)cc1 [Compound 99] | 30 to 50% |
| O=C(O)c1ccc(CNC(=O)c2c(Cl)cccc2C(=O)O)cc1 [Compound 100] | 30 to 50% |
| COc1cccc(C(=O)NCc2ccc(C(=O)O)cc2)c1C(=O)O [Compound 103] | > 50% |
| COc1cccc(C(=O)O)c1C(=O)NCc1ccc(C(=O)O)cc1 [Compound 104] | > 50% |
| O=C(O)c1ccccc1C(=O)Nc1ccc(OCCO)cc1 [Compound 105] | 30 to 50% |
| COc1ccc(C(=O)NCc2ccc(C(=O)O)cc2)c(C(=O)O)c1 [Compound 106] | 30 to 50% |
| CN(c1cccc(NC(=O)c2ccccc2C(=O)O)c1)S(C)(=O)=O [Compound 107] | 30 to 50% |
